These results are taken from US8927502B2, “Embedded chimeric peptide nucleic acids and uses thereof” (ICahn School of Medicine at Mount Sinai, priority 2010, dated 2015).

Read-outs that look alike come from different tables or passages of the source.

The subject of test [1] is γ-globin protein in MBC-βYAC cells. The following applies: not detectable in untreated cells.
Experimental: K562 cells were also stained and served as a positive control for γ-globin protein detection (arrowheads).
At 48 hours post-PNA treatment, 100K MBC-βYAC cells were collected and spun onto frosted slides (Fisher) in a Shandon Cytospin 2 centrifuge at 500 rpm for 5 minutes. All steps were carried out at room temperature except when indicated. Cells were fixed for 4 minutes in ice-cold acetone/methanol (1:1) on ice and rinsed twice with 2% BSA/PBS. Samples were then incubated with blocking solution (10% FCS, 0.05% NP40/PBS) for 30 minutes followed by a two-hour incubation with hemoglobin γ antibody (Santa Cruz Biotechnology, sc-21756) diluted 1:100 in blocking solution. Slides were washed 3× with 2% BSA, 0.05% NP40/PBS and then incubated with goat anti-mouse secondary antibody conjugated to Alexa 568 (Invitrogen) at a 1:50 dilution for one hour in a dark chamber. Slides were then washed 3× with 2% BSA/PBS with a final rinse in PBS and mounted with DAPI-containing Vectashield. DAPI and Alexa568 images were visualized on a Zeiss spinning disc confocal microscope (PerkinElmer).
The subject of test [2] is γ-globin protein in human peripheral blood CD34+ cells. The method, then:
(§1) K562 cells served as a positive control. FIG. 13(c) contains dot plots and histograms from toxicity analysis by flow cytometry of cultured CD34+ cells after PNA treatment.
(§2) Purified CD34+ cells were cultured, treated at the end of day 2 with the various PNA chimeras or with no PNA, and harvested 16 hours later for analysis.

Test [3] deals with γ-globin expression in human mobilized peripheral blood CD34+ cells. To be noted: treated at end of day 2, harvested 16 hours later. The method, then: as §1, §2
The test system of test [4] is human γ-globin gene in MBC-βYAC cells. Kind of test: γ-globin expression by quantitative RT-PCR in β-YAC mouse bone marrow cells. It counts as cell-based.
Text: To test this, a line of mouse bone marrow cells engineered to carry a yeast artificial chromosome that contains the complete human β-like globin locus (β-YAC) was used.
After treatment, cells were harvested and mRNA was extracted for reverse transcriptase (RT)-quantitative polymerase chain reaction (qPCR) using two different sets of published primers that recognize sequences within the γ-globin gene.
Total RNA from β-YAC MBCs were isolated with a RNeasy micro kit (Qiagen) following the manufacturer's instructions. RNA concentrations were quantified using a Nanodrop. Reverse transcription of RNA was performed with Promega's Reverse Transcription System and expression levels were quantified using a Quantitect SYBR Green PCR kit from Qiagen in conjunction with an ABI PRISM 7900HT and SDS software [see Lohmann, F. & Bieker, J. J. supra] Q-PCR results for globin expression were normalized by 2−[(Ct γ−Ct β)−(Ct γ [no PNA]−Ct β [noPNA])][see Livak, K. J. & Schmittgen, T. D., Analysis of relative gene expression data using real-time quantitative PCR and the 2(−Delta Delta C(T)) Method. Methods 25, 402-408 (2001)] divided by the PNA incorporation efficiency (determined from the live cell image data). Each reaction was performed in triplicate.
In test [5] the test system is γ-globin promoter luciferase reporter. The class given is cell-based, human. The method, then:
The γ-globin reporter contained a 1.5 Kb Human HS2 fragment upstream of the −299 to +37 human γ-globin promoter in Promega's (Madison, Wis.) pGL2 Basic plasmid. [See Caterina, J. J., Donze, D., Sun, C. […] Nucleic Acids Res 22, 2383-2391 (1994).]
Transfection of K562 cells was performed using the DMRIE lipofection method (Gibco, Invitrogen, Carlsbad, Calif.). K562 cells were counted and 1×10^5 cells were resuspended in 0.1 mL OPTI-MEM in a 12-well plate (BD Falcon, Franklin Lakes, N.J.). Experiments were all done in triplicates. 1.5 ng Renilla plasmid (Promega Corporation. Madison, Wis.) and 0.5 μg reporter construct were added to each well. After 2 hours of transfection, PNAs were added to a final concentration of 10 μM. 2 hours later, 1 ml RPMI and a final concentration of 10% FBS were added to each well. This was followed by incubation at 37° C. for 36 hours.
36 hours after PNA addition, K562 cells were collected by centrifugation at 2500 rpm. Media was discarded and cells were washed once with 1×PBS and resuspended in 250 μL 1× passive lysis buffer (PLB) (Promega). Tubes that contained cells were put on a rocker platform for 10 minutes at room temperature. Cells were then centrifuged at 13000 rpm and resuspended in 200 μL 1×PLB, loaded on a 96 well plate and further analyzed with a Turner Biosystem Microplate Luminometer. […] Mol Cell Biol 27, 8547-8560 (2007).] Luciferase values were divided by the Renilla value from the same sample after it had been divided by 1000. To minimize the differences in between loading, each sample was loaded in three different wells and the average of three was calculated.

The test system of test [6] is endogenous γ-globin promoter. Kind of test: Chromatin association assay in K562 cells (streptavidin bead pull-down, quantitative PCR). The class given is cell-based, human. To be noted: 10 μM in K562 cells. The source says:
To determine whether PNA78 can interact with its target site in vivo, a modification of the chromatin immunoprecipitation assay was developed. […] Along with the “no addition” negative control, a variant of PNA78 that contain two point mutations (MUT PNA78) was synthesized and used it as an additional negative control along with a “TAT alone” control.
This assay incorporates elements of chromatin [see Siatecka, M., Xue, L. & Bieker, J. J., Sumoylation of EKLF promotes transcriptional repression and is involved in inhibition of megakaryopoiesis, Mol Cell Biol 27, 8547-8560 (2007)] and biotinylated protein [see Viens, A., Mechold, U., Lehrmann, H., Harel-Bellan, A. & Ogryzko, V., Use of protein biotinylation in vivo for chromatin immunoprecipitation. Anal Biochem 325, 68-76 (2004)] immunoprecipitation protocols. PNA 78/TAT or mutant (MUT) PNA 78/TAT were added to 10^7 K562 cells to a final concentration of 10 μM. After […], a portion of the cells were analyzed and quantified for PNA incorporation efficiency by confocal analysis of live cells (as above), and the rest were harvested and cross-linked with 0.4% formaldehyde (Fisher Scientific, F79-500) for 10 minutes in room temperature then quenched by addition of glycine in the final concentration of 0.125 M for another 10 minutes. […]
After 16 hours of incubation of K562 cells, any formed PNA-chromatin complex was cross-linked and cells were disrupted and chromatin was sheared by sonication. […] The DNA was purified for sequence identification by quantitative PCR. To more precisely quantitate the extent of PNA entry into the nucleus, a portion of the cells from each treatment was collected, stained with the DRAQ5 live-cell nuclear stain, attached to chamber-slides, and inspected under confocal microscopy to compare PNA and TAT nuclear entry efficiency.
One microliter of DNA was used in 20 μl of quantitative PCR reaction using a Quantitect SYBR Green PCR kit from Qiagen (Valenica, Calif.) and the presence of γ-globin promoter sequences was quantified with an ABI PRISM 7900HT and SDS software. […]

Test [7] concerns human γ-globin promoter DNA oligonucleotide (wild type or mutated target sequence). To be noted: for binding of PNA to its target DNA oligo (bound/input): wild type vs mutant oligo, PNA 0-10 μM, 37° C. overnight. How it is done: FIG. 1 depicts in vitro target binding specificity of four PNAs designed to interact with the human γ-globin promoter. […] The relative location of known promoter elements within this region is also indicated. Orientation of the PNA molecule relative to the promoter sequence is shown above, with a lys at its 3′-end and a biotin molecule (circle) attached at the 5′-end. In FIG. 1(b), different concentrations of PNAs (0-10 μM) were incubated with a constant amount of radioactively labeled DNA oligonucleotide (10 nM) containing either the wild type (wt) or mutated (mut) target sequence followed by incubation with streptavidin Dynabeads and collection with a magnetic particle concentrator. Bound/input ratios were obtained after scintillation counter analysis. […] The A+G sequence ladder is shown in lane 1, along with the nucleotide sequence of the γ-globin promoter aligned on the left.
A novel assay was developed to monitor specific binding of PNA molecules to their cognate DNA site (FIG. 1(b)). 2 ng of ^32P-labelled double-stranded DNA oligonucleotide (designed at regions of the γ-promoter centered at each of the four PNA target sites) was incubated with various molar excess (0× to 1000×) of PNA at 37° C. overnight in a final volume of 15 uL with 10 mM Tris and 1 mM of EDTA. The resultant material was incubated with equal amount of Dynabeads M280-streptavidin (DYNAL biotech) for […] at 25° C. Beads had been prepared by washing twice with BW buffer (10 mM Tris, pH7.5, 1 mM EDTA, 2.0M NaCl). The beads were pulled down with a Dynal MPC-S magnetic particle concentrator and washed twice with BW buffer. Samples were finally suspended in 50 uL BW buffer, and radioactivity was counted for 10 minutes in a scintillation counter to yield the average counts per minute (cpm) taken for each sample, which was then divided by the cpm of the input (1 uL of the radio-labeled oligo).

Test [8] has as its system γ-globin promoter region −299 to +37. The following applies: PNA 50 uM, overnight at 37° C.
Experimental: To further confirm the observation in the magnetic-pull down assay, permanganate (KMnO4) probing of the PNA78/DNA interaction in solution was carried out (FIG. 1(c)). […] Methods Mol Biol 208, 91-109 (2002)], 1 ng of a singly ^32P-end-labeled, gel purified RsaI/XhoI fragment derived from the p250 plasmid that contains the γ-globin promoter region −299 to +37 was incubated in a volume of 15 μL with a final concentration of 10 mM Tris and 1 mM EDTA for 30 minutes at 37° C. PNA was added at a final concentration of 50 uM for further incubation overnight at 37° C. 1 uL 20 mM KMnO4 was added to the reaction, and after 15 s 10 uL stop buffer (1.5 M sodium acetate, 1 M 2-mercaptoethanol, Ph 7.0) was added. 2.5× vol of 96% ethanol was added and the DNA collected by centrifugation at 13000 rpm for 15 minutes. The supernatant was removed and the DNA pellet dissolved in 100 uL 10% piperidine followed by incubation at 90° C. for 20 minutes. The lympholized DNA sample was resuspended in 8 μL FA buffer (80% deionized fomamide, 10 mM EDTA, 0.25% xylenecyanol FF, 0.25% bromphenol blue). DNA was denatured at 90° C. for 2 minutes, chilled on ice, and then electrophoresed on thin 10% polyacrylamide gels containing 7 M urea. The dried gel was then exposed for autoradiography.
In test [9] the test system is PNA78 target sequence/minimal SV40 promoter luciferase reporter in 293T cells. Kind of test: Luciferase reporter with four repeats of PNA78 target sequence and minimal SV40 promoter in 293T cells. It counts as cell-based.
For test [10], the system named is PNA78 target sequence/minimal SV40 promoter luciferase reporter in K562 cells. The test is described as follows: Luciferase reporter with four repeats of PNA78 target sequence and minimal SV40 promoter in K562 cells. It counts as cell-based, human.
The mark [11] stands for this setting: wild type γ-promoter, 10 μM, 36 hours.

As to “H2N-CGSDALDDFDLDML-Biotin-O-TACTCTAAGACTATT-O-YGRKKRRQRRR [ATF-Bio/PNA78/TAT]”, the “γ-globin protein expression in the cytoplasm” value in test [1] is reported as “levels approaching that seen in uninduced K562 cells”. Further, in test [2], the γ-globin protein accumulation entry was “γ-globin protein accumulation solely in those cells”. Besides, the “cells positive for γ-globin protein” value in test [2] (visual analysis of ≧100 cells per field) is 22%. For the same substance, the “increase of γ-globin expression compared to untreated cells” value in test [3] was around 5 fold. Moreover, the “increase of γ-globin levels/expression” value in [4] (16 hours after PNA treatment, in comparison to cells treated with PNA78/TAT alone) was 7 fold.

As for “Biotin-OO-TACTCTAAGACTATT-O-PKKKRKV [PNA78/NLS]”, the “effect on activity of γ-globin luciferase reporter (superactivation)” value (shortened to “effect on activity”) in test [5] (setting [11]) is “mild”.

With “YGRKKRRQRRR [TAT alone, reference compound]”, the “effect on activity” value in [5] (setting [11]) is recorded as “no effect”. Moreover, the “interaction with target sequence within the γ-globin promoter (quantitative PCR of precipitated DNA)” value (“interaction” for short) in [6] was “not higher than the ‘no addition’ control”.

With “Bio-OO-CGSDALDDFDLDML-O-TACTCTAAGACTATT-O-YGRKKRRQRRR [Bio-ATF/PNA78/TAT]”, the “ability to activate γ-globin expression” value in test [4] (biotin at the extreme 5′ end) is “precluded its ability to activate γ-globin expression”.

With “Biotin-OO-TACTCTAAGACTATT-O-YGRKKRRQRRR [PNA78/TAT]”, in test [5], the “effect on activity” value is given as “stronger” and the “superactivation of γ-promoter reporter mutated at the PNA78 target site” value is given as “negated its ability to be superactivated”. The “interaction” value in [6] was “greater than the non-specific MUT PNA78 and TAT alone”.

In the case of Biotin-OO-GGCTATTGGTCAAGGC-k [PNA116], in test [7], the “binding to the mutant DNA target” value is “bound to the mutant DNA target to an unacceptable extent” and the “binding of PNA to its target DNA oligo (bound/input)” value (from here on “binding of PNA … (bound/input)”) is listed as “bound their target DNA oligo in proportion to their input”.

Turning to “Biotin-OO-TACTATAAAACTATT-O-YGRKKRRQRRR [MUT PNA78/TAT]”, the “interaction” value in test [6] was “not higher than the ‘no addition’ control”.

Take Biotin-OO-TACTCTAAGACTATT-O-k [PNA78]: in test [8], the “binding to target region within the γ-globin promoter fragment” value is “binds specifically to its target region”. For the same substance, in test [7], the “discrimination between wild type and mutant oligos” value was around 25 fold; the “binding of PNA … (bound/input)” value is listed as “bound their target DNA oligo in proportion to their input”.

As to Biotin-OO-TGTGGAACTGCTGAA-O-k [PNA7], the “binding of PNA … (bound/input)” value in test [7] was “did not discriminate or bind well”.

For Biotin-OO-GAGTTTAGCCAGG-O-k [PNA150], in test [7], the “binding of PNA … (bound/input)” value is recorded as “did not discriminate or bind well”.

As to “Bio-OO-DFDLDMLGDFDLDMLG-O-TACTCTAAGACTATT-O-YGRKKRRQRRR [VP2/PNA78/TAT]”, in test [9], the luciferase activity increase result is given as “not observed at all”. The “effect on activity” value in test [5] (setting [11]) was “little effect beyond that seen with PNA78/TAT”. Also, the “luciferase activity increase compared to non-treated cells” value in test [10] was 2.3 fold.
